Measured values as given in ChEMBL document CHEMBL5303765, “Data for DCP probe BAY-7081” (2023).

What was measured:
[1] = biological target: Serine/threonine-protein kinase Chk2 (Homo sapiens) (UniProt O96017); experiment: CHEK2 SGC Tm panel (DSF); conditions: for ΔTm: Compound concentration 10.0 uM
[2] = biological target: Dual specificity protein kinase CLK3 (Homo sapiens) (UniProt P49761); experiment: CLK3 SGC Tm panel (DSF); conditions: for ΔTm: Compound concentration 10.0 uM
[3] = biological target: Dual specificity tyrosine-phosphorylation-regulated kinase 1A (Homo sapiens) (UniProt Q13627); experiment: DYRK1A SGC Tm panel (DSF); conditions: for ΔTm: Compound concentration 10.0 uM
[4] = biological target: Homeodomain-interacting protein kinase 2 (Homo sapiens) (UniProt Q9H2X6); experiment: HIPK2 SGC Tm panel (DSF); conditions: for ΔTm: Compound concentration 10.0 uM
[5] = biological target: T1, Dual specificity mitogen-activated protein kinase kinase 7 (Homo sapiens) (UniProt O14733); experiment: MAP2K7 SGC Tm panel (DSF); conditions: for ΔTm: Compound concentration 10.0 uM
T1 sequence (whole entry): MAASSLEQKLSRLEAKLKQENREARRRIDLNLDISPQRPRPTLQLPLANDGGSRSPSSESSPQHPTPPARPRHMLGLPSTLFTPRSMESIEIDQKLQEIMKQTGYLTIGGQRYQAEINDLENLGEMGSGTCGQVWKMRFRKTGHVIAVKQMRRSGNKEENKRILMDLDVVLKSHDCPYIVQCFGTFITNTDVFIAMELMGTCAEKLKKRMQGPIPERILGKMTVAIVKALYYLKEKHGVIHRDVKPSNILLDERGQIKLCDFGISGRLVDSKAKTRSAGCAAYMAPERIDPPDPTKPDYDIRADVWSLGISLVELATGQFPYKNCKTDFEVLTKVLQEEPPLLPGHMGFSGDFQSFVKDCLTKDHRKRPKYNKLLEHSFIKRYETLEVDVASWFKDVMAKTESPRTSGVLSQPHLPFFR

[6] = biological target: Mitogen-activated protein kinase 9 (Homo sapiens) (UniProt P45984); experiment: MAPK9 SGC Tm panel (DSF); conditions: for ΔTm: Compound concentration 10.0 uM
[7] = biological target: SRSF protein kinase 3 (Homo sapiens) (UniProt Q9UPE1); experiment: MSSK1 SGC Tm panel (DSF); conditions: for ΔTm: Compound concentration 10.0 uM
[8] = biological target: Serine/threonine-protein kinase Nek7 (Homo sapiens) (UniProt Q8TDX7); experiment: NEK7 SGC Tm panel (DSF); conditions: for ΔTm: Compound concentration 10.0 uM
[9] = biological target: T2, Dual specificity protein kinase TTK (Homo sapiens) (UniProt P33981); experiment: TTK SGC Tm panel (DSF); conditions: for ΔTm: Compound concentration 10.0 uM
T2 sequence (whole entry): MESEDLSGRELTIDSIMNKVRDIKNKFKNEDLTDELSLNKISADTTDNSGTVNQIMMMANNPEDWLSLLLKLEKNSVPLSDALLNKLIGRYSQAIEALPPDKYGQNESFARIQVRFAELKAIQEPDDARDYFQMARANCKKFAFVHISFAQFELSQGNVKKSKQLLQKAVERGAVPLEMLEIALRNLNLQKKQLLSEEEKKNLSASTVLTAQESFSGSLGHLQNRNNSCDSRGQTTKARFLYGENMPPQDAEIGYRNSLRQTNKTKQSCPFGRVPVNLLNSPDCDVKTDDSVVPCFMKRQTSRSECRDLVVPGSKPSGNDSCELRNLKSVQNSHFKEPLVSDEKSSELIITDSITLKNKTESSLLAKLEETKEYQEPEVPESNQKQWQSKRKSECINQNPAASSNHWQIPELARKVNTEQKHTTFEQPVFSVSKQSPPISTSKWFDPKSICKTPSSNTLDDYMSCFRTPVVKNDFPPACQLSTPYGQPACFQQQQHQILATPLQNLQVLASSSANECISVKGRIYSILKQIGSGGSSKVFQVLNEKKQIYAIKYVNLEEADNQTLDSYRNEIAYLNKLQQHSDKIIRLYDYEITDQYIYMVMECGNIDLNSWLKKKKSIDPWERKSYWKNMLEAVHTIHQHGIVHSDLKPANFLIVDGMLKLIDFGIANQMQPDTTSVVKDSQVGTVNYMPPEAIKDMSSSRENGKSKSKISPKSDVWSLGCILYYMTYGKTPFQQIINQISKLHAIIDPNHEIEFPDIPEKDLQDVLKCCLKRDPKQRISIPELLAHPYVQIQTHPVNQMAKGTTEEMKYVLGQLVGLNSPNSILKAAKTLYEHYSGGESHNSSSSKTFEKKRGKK

[10] = biological target: T3, Serine/threonine-protein kinase VRK1 (Homo sapiens) (UniProt Q99986); experiment: VRK1 SGC Tm panel (DSF); conditions: for ΔTm: Compound concentration 10.0 uM
T3 sequence (whole entry): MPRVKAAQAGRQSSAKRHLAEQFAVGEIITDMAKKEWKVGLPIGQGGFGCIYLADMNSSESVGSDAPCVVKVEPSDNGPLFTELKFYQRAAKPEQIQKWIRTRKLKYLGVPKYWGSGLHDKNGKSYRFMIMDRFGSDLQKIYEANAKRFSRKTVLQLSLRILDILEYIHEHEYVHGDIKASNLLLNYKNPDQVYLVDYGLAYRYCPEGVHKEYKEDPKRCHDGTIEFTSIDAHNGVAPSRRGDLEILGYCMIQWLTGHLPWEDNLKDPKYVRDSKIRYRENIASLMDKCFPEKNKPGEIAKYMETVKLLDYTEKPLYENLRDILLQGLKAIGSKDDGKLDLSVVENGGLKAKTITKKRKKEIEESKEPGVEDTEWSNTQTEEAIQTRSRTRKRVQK

[11] = biological target: 5-hydroxytryptamine receptor 2A (Homo sapiens) (UniProt P28223); conditions: Compound concentration 10.0 uM
[12] = biological target: 5-hydroxytryptamine receptor 5A (Homo sapiens) (UniProt P47898); conditions: Compound concentration 10.0 uM
[13] = biological target: Sodium-dependent dopamine transporter (Homo sapiens) (UniProt Q01959); conditions: Compound concentration 10.0 uM
[14] = biological target: Kappa-type opioid receptor (Homo sapiens) (UniProt P41145); conditions: Compound concentration 10.0 uM
[15] = biological target: Histamine H1 receptor (Homo sapiens) (UniProt P35367); conditions: Compound concentration 10.0 uM
[16] = biological target: Beta-2 adrenergic receptor (Homo sapiens) (UniProt P07550); conditions: Compound concentration 10.0 uM
[17] = biological target: Muscarinic acetylcholine receptor M3 (Homo sapiens) (UniProt P20309); conditions: Compound concentration 10.0 uM
Sequence of Muscarinic acetylcholine receptor M3 (Homo sapiens) (P20309 whole entry, looked up): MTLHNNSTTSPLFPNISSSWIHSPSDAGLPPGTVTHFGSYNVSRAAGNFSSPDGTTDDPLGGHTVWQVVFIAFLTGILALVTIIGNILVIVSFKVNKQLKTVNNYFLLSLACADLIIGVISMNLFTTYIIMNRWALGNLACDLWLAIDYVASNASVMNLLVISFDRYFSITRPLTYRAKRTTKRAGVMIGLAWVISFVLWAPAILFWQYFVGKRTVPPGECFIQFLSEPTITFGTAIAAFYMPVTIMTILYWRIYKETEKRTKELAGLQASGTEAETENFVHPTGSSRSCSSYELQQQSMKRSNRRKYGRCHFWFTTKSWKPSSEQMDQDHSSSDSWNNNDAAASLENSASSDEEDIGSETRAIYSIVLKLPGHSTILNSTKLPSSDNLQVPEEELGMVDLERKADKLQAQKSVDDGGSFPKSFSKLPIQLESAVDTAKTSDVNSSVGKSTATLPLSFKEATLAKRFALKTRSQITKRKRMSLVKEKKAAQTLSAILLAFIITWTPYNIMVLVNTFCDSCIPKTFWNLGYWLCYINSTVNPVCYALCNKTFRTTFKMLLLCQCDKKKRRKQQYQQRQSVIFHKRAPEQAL

Sequence of Sodium-dependent dopamine transporter (Homo sapiens) (Q01959 whole entry): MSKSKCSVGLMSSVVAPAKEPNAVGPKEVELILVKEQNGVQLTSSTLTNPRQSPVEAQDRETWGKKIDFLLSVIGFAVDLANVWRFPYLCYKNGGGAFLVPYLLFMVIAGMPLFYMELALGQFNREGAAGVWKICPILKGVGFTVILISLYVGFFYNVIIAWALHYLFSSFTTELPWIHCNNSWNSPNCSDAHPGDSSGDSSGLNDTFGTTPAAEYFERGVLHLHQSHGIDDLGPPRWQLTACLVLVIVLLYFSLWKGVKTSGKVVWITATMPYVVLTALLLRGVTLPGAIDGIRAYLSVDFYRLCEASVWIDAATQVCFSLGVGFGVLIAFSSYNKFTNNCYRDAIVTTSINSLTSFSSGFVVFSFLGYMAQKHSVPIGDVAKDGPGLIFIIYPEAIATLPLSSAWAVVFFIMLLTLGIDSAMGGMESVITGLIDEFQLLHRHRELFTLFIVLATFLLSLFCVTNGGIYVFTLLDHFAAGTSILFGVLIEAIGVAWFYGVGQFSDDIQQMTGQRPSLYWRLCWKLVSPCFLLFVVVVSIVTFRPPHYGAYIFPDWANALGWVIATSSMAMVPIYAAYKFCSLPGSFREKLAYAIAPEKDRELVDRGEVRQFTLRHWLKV
Sequence of 5-hydroxytryptamine receptor 5A (Homo sapiens) (P47898 whole entry): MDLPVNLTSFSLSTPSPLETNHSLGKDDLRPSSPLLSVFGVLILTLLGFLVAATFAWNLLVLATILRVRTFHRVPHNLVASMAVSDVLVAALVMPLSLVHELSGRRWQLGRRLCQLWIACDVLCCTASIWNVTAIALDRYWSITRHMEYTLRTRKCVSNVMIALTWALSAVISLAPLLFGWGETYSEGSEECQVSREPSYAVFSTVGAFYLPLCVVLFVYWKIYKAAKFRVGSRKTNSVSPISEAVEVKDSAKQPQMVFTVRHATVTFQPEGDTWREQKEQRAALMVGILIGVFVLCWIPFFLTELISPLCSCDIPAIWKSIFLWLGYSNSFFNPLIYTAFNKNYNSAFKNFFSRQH
Sequence of Histamine H1 receptor (Homo sapiens) (P35367 whole entry): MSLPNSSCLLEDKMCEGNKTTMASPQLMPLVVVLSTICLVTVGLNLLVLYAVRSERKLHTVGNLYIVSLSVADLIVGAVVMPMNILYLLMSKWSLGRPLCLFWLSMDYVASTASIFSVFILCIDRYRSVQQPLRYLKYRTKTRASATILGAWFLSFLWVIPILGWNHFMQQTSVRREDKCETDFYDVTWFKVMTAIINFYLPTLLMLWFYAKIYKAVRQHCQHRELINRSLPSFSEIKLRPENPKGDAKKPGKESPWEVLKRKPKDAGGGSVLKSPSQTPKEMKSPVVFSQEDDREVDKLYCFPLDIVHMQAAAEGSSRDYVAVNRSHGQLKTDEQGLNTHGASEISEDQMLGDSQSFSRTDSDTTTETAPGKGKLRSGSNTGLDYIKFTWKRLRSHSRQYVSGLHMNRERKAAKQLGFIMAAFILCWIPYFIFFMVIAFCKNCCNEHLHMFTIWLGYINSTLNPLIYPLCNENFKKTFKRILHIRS
Sequence of Beta-2 adrenergic receptor (Homo sapiens) (P07550 whole entry, looked up): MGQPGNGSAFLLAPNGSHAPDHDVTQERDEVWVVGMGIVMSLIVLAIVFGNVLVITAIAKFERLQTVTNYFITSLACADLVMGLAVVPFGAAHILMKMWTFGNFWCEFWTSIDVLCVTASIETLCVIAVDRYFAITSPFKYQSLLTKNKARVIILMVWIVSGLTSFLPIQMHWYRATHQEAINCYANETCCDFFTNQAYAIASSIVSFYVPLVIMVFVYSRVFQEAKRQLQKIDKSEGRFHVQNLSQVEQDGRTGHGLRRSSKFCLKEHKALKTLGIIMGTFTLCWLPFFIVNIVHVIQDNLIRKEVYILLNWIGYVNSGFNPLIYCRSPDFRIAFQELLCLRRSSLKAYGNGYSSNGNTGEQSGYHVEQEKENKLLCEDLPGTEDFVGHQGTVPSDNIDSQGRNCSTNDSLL
Sequence of Kappa-type opioid receptor (Homo sapiens) (P41145 whole entry): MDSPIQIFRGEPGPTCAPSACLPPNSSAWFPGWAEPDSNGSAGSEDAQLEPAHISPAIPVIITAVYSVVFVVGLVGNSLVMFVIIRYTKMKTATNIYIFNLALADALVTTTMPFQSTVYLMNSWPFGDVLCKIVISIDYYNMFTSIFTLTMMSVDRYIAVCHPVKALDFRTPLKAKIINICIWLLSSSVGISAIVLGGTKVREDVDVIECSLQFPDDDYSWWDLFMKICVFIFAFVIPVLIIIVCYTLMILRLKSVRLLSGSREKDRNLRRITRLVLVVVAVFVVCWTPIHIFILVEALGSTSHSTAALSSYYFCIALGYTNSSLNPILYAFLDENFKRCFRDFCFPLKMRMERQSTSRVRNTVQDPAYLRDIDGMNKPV
Sequence of SRSF protein kinase 3 (Homo sapiens) (Q9UPE1 whole entry): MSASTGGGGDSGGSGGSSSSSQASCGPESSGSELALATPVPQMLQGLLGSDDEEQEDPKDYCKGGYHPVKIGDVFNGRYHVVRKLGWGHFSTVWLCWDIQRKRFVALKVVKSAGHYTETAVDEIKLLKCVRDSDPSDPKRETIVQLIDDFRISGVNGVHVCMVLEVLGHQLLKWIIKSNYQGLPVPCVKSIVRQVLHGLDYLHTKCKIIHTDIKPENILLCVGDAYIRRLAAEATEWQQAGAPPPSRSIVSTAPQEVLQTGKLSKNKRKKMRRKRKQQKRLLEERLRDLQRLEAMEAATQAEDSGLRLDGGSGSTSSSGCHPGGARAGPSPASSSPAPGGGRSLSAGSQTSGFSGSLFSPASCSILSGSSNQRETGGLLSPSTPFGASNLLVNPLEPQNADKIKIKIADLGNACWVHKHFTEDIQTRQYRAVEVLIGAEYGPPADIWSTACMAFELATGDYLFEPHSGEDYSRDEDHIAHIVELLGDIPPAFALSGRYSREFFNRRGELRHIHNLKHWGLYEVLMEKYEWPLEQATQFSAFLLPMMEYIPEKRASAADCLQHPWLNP
Sequence of Homeodomain-interacting protein kinase 2 (Homo sapiens) (Q9H2X6 whole entry, looked up): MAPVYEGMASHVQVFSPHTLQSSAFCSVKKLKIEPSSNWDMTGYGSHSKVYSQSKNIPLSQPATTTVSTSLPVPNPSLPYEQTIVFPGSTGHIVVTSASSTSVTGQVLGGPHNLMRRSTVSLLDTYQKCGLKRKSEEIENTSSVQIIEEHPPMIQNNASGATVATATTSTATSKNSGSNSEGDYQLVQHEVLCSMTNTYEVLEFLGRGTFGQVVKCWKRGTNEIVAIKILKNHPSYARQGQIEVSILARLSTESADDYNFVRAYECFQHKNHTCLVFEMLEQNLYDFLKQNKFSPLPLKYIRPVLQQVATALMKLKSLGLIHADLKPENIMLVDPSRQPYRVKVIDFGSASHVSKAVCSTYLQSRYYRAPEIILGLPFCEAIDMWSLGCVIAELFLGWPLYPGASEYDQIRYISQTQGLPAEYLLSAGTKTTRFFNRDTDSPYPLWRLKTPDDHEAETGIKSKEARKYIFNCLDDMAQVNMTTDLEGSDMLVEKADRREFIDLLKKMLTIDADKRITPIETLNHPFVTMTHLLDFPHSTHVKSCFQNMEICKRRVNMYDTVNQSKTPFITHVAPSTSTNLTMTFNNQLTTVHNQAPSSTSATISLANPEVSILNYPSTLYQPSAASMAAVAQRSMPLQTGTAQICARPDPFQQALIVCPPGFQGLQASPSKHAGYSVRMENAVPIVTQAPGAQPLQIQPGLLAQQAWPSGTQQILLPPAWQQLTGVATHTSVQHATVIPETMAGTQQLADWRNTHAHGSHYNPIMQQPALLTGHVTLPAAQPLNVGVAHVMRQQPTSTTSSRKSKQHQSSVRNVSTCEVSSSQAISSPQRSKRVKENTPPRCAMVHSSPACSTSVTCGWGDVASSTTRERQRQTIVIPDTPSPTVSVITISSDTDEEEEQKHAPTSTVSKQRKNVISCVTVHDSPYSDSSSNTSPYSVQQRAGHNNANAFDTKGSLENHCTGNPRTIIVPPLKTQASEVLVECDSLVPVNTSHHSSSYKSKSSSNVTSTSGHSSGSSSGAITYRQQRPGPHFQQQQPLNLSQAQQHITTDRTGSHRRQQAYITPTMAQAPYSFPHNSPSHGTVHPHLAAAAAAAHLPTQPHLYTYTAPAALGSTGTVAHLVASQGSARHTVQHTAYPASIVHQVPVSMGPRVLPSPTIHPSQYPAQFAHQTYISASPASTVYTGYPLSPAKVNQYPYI
Sequence of Serine/threonine-protein kinase Nek7 (Homo sapiens) (Q8TDX7 whole entry, looked up): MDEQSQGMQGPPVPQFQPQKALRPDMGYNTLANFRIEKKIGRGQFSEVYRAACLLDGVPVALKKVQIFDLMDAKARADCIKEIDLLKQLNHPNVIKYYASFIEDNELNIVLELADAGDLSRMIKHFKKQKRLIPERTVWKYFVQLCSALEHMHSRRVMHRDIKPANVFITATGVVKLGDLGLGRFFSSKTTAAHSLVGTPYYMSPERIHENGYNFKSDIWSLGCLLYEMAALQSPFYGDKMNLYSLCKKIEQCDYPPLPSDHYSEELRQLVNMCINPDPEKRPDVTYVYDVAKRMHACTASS

For CCC[C@@H]1CNCc2c1[nH]c(=O)c(C#N)c2N1CCC2(CC1)CC2, the delta Tm Staurosporine positive control [1] was 17.8, the ΔTm [1] was -0.386 and the delta Tm Staurosporine positive control [2] was 5.3. The ΔTm [2] was -0.379, the delta Tm Staurosporine positive control [3] was 9.05 and the ΔTm [3] was 0.743. It also gave a delta Tm Staurosporine positive control [4] of 4.23, a ΔTm [4] of -0.297 and a delta Tm Staurosporine positive control [5] of 7.05. The ΔTm [5] was -1.17, the delta Tm Staurosporine positive control [6] was 3.03 and the ΔTm [6] was -0.0844. For the same molecule, the delta Tm Staurosporine positive control [7] was 4.52, the ΔTm [7] was -0.164 and the delta Tm Staurosporine positive control [8] was -0.489. It also gave a ΔTm [8] of -0.956, a delta Tm Staurosporine positive control [9] of 7.9 and a ΔTm [9] of 0.316. It also gave a delta Tm Staurosporine positive control [10] of 2.35, a ΔTm [10] of -0.315 and an inhibition [11] of -4.86%. For the same molecule, the inhibition [12] was 3.9%, the inhibition [13] was 7.47% and the inhibition [14] was 29.3%. It also gave an inhibition [15] of 4.72%, an inhibition [16] of -6.78% and an inhibition [17] of 3.32%.
CCC[C@H]1CNCc2c1[nH]c(=O)c(C#N)c2N1CCC2(CC1)CC2 showed a delta Tm Staurosporine positive control [1] of 17.8, a ΔTm [1] of 3.11 and a delta Tm Staurosporine positive control [2] of 5.3. It also gave a ΔTm [2] of -0.402, a delta Tm Staurosporine positive control [3] of 9.05 and a ΔTm [3] of -0.256. The delta Tm Staurosporine positive control [4] was 4.23, the ΔTm [4] was -0.31 and the delta Tm Staurosporine positive control [5] was 7.05. The ΔTm [5] was -1.17, the delta Tm Staurosporine positive control [6] was 3.03 and the ΔTm [6] was -0.605. The delta Tm Staurosporine positive control [7] was 4.52, the ΔTm [7] was -0.144 and the delta Tm Staurosporine positive control [8] was -0.489. The ΔTm [8] was -0.134, the delta Tm Staurosporine positive control [9] was 7.9 and the ΔTm [9] was 0.222. It also gave a delta Tm Staurosporine positive control [10] of 2.35, a ΔTm [10] of -0.355 and an inhibition [11] of -6.26%. It also gave an inhibition [12] of 5.53%, an inhibition [13] of 3.42% and an inhibition [14] of 34.3%. The inhibition [15] was -2.94%, the inhibition [16] was -6.31% and the inhibition [17] was -1%.
